Target: ALK tyrosine kinase receptor (Homo sapiens, UniProt Q9UM73)
Assay: Inhibition of baculovirus expressed GST-tagged human ALK cytoplasmic domain using PLCgamma as substrate after 15 mins by time-resolved fluorescence analysis

Chain of ALK tyrosine kinase receptor (Q9UM73 whole entry, the tested form may be a part): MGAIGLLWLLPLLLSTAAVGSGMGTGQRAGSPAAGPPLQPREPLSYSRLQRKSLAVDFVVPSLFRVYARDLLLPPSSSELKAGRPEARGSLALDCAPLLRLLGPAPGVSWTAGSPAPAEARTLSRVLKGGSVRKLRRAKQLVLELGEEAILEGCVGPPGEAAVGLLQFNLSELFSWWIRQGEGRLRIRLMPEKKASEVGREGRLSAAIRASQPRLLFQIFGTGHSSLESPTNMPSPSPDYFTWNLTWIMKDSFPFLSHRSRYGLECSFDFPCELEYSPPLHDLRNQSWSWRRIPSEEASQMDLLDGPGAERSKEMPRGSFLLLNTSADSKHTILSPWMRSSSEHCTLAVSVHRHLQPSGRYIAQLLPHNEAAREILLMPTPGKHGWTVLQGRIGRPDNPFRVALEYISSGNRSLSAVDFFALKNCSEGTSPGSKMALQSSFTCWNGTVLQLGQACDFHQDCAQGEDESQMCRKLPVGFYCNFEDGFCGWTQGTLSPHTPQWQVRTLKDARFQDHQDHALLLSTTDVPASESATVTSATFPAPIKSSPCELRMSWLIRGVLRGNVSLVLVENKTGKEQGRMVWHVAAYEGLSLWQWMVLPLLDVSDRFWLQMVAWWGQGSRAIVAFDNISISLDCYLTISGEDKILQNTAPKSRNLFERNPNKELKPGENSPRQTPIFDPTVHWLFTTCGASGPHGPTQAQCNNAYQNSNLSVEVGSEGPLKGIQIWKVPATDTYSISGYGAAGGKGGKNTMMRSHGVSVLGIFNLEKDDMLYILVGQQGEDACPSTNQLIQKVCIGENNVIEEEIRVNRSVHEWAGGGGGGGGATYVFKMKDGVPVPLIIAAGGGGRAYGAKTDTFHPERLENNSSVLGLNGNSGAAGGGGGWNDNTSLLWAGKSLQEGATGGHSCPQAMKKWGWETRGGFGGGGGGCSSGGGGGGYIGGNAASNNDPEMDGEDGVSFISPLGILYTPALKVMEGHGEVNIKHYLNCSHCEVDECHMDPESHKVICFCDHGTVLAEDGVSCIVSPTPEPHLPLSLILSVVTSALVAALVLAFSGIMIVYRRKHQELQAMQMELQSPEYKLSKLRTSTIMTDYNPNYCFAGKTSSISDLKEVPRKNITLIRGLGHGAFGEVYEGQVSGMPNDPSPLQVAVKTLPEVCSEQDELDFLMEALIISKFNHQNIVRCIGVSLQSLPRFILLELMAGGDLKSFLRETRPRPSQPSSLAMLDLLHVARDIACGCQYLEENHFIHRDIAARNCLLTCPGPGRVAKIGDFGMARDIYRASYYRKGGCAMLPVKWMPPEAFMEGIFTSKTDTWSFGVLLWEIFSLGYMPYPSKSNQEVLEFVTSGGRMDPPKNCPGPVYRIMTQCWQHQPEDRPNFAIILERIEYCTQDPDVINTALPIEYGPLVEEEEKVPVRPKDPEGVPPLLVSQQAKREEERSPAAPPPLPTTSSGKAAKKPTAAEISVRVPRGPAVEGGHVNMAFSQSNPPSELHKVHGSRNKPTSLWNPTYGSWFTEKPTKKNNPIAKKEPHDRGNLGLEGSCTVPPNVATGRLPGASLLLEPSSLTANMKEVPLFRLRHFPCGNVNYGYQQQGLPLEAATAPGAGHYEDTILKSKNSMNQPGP

Row | IC50 [µM] | SMILES
1 | > 10 | Clc1cnc2nc1Nc1cccc(c1)CCc1cccc(c1)N2
2 | > 10 | Clc1cnc2nc1Nc1cccc(c1)CCc1cc(ccc1N1CCOCC1)N2
3 | > 1 | COc1ccc2cc1Nc1nc(ncc1Cl)Nc1ccc(N3CCOCC3)c(c1)CC2
